Drawing on patent US8329904B2, “Azacyclic derivatives” (Hoffmann-La Roche Inc., priority 2009, dated 2012), this text covers IC50 for 28 compounds.

The target in the assay is T1, human HSL (Homo sapiens, UniProt Q05469).
T1 construct: overlapping PCR to generate a full length human HSL ORF with a 3′-His6 tag; His6 (C); made in house; host or cells: High 5 insect cells (baculovirus, pFast-BAC)
T1 sequence (Q05469 1-1076): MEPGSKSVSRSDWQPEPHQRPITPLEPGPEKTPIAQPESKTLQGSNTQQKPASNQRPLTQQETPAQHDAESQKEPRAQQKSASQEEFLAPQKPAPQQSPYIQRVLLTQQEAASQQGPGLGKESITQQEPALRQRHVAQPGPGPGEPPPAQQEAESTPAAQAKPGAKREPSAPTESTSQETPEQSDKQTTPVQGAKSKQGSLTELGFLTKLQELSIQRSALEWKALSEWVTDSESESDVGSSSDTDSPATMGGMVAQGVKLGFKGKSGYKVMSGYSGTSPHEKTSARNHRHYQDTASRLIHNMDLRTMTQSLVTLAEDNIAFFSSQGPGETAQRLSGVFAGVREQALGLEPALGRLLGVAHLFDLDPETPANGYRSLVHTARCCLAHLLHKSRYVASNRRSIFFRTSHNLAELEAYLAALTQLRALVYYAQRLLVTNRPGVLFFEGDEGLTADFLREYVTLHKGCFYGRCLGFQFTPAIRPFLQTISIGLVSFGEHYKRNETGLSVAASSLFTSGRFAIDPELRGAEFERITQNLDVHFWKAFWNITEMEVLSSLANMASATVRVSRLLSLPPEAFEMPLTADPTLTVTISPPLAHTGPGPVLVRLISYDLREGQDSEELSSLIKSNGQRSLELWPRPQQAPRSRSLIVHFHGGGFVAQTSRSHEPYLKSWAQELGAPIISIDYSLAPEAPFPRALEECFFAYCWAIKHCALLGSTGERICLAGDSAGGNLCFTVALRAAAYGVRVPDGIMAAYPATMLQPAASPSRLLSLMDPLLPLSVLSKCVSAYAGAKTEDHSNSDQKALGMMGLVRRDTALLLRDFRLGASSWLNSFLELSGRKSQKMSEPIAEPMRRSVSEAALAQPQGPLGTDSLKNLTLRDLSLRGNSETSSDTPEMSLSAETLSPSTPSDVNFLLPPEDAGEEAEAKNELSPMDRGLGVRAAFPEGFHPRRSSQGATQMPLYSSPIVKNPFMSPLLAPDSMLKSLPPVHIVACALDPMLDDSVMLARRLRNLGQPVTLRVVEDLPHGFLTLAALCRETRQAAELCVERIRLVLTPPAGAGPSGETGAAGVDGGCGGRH
Description: Human Hormone-Sensitive Lipase (HSL) Enzyme Inhibition Assay. The settings on record: colorimetric assay, 2,3-dimercapto-1-propanol tributyrate (DMPT) substrate, 37° C. for 20 minutes, absorbance at 405 nm; read-out: HSL hum IC50. The class given is biochemical. The essentials: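 Colorimetric thioester hydrolysis: compounds in DMSO series mixed with DMPT (1.5 mM) in MOPS pH 7.2 with BSA, then baculovirus-expressed His6-tagged full-length human HSL added, 37° C, 20 min. DTNB plus detergents added, 15 min room temperature, absorbance at 405 nm.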

By IC50 is commonly meant the concentration needed to halve the response being measured. For the compound `O=C1N(c2ccc(OCC(F)(F)F)nc2)CCC12CCN(S(=O)(=O)c1ccccc1)CC2` [Example 117, 8-Benzenesulfonyl-2-[6-(2,2,2-trifluoro-ethoxy)-pyridin-3-yl]-2,8-diaza-spiro[4.5]decan-1-one], the IC50 was 60 nM.

As for `O=C1N(c2cnc(OCC(F)(F)F)nc2)CCC12CCN(S(=O)(=O)c1ccccc1)CC2` [Example 118, 8-Benzenesulfonyl-2-[2-(2,2,2-trifluoro-ethoxy)-pyrimidin-5-yl]-2,8-diaza-spiro[4.5]decan-1-one], the IC50 turned out to be 470 nM. For the compound `O=C1N(c2ccc(OCC(F)(F)F)nc2)CCC12CCN(S(=O)(=O)c1ccccc1Cl)CC2` [Example 119, 8-(2-Chloro-benzenesulfonyl)-2-[6-(2,2,2-trifluoro-ethoxy)-pyridin-3-yl]-2,8-diaza-spiro[4.5]decan-1-one], the half-inhibitory concentration (IC50) came to 50 nM.

Consider `CC(C)(C)CC(=O)N1CCC2(CC1)CCN(c1ccc(OCC(F)(F)F)cc1)C2=O` [Example 120, 8-(3,3-Dimethyl-butyryl)-2-[4-(2,2,2-trifluoro-ethoxy)-phenyl]-2,8-diaza-spiro[4.5]decan-1-one], for which the IC50 was 600 nM. The same measure for `CC1(C(=O)N2CCC3(CC2)CCN(c2ccc(OCC(F)(F)F)cc2)C3=O)CC1(Cl)Cl` (stereo not shown) [Example 121, 8-(2,2-Dichloro-1-methyl-cyclopropanecarbonyl)-2-[4-(2,2,2-trifluoro-ethoxy)-phenyl]-2,8-diaza-spiro[4.5]decan-1-one]: 200 nM. The figure for `CC(C)(C)CC(=O)N1CCC2(CC1)CCN(c1ccc(OCC(F)(F)F)nc1)C2=O` [Example 122, 8-(3,3-Dimethyl-butyryl)-2-[6-(2,2,2-trifluoro-ethoxy)-pyridin-3-yl]-2,8-diaza-spiro[4.5]decan-1-one] is 540 nM. The same measure for `CC(Oc1ccc(N2CCC3(CCN(C(=O)CC(C)(C)C)CC3)C2=O)cc1)C(F)(F)F` (stereo not shown) [Example 123, 8-(3,3-Dimethyl-butyryl)-2-[4-(2,2,2-trifluoro-1-methyl-ethoxy)-phenyl]-2,8-diaza-spiro[4.5]decan-1-one]: 250 nM; for `CCn1cc2cc(N3CCC4(CCN(S(=O)(=O)c5ccccc5Cl)CC4)C3=O)ccc2n1` [Example 124, 8-(2-Chloro-benzenesulfonyl)-2-(2-ethyl-2H-indazol-5-yl)-2,8-diaza-spiro[4.5]decan-1-one]: 60 nM. On to `CC(Oc1ccc(N2CCC3(CCN(S(=O)(=O)c4ccccc4Cl)CC3)C2=O)cc1)C(F)(F)F` (stereo not shown) [Example 125, 8-(2-Chloro-benzenesulfonyl)-2-[4-(2,2,2-trifluoro-1-methyl-ethoxy)-phenyl]-2,8-diaza-spiro[4.5]decan-1-one], for which the IC50 stood at 20 nM.

For `CCn1ncc2cc(N3CCC4(CCN(S(=O)(=O)c5ccccc5Cl)CC4)C3=O)ccc21` [Example 126, 8-(2-Chloro-benzenesulfonyl)-2-(1-ethyl-1H-indazol-5-yl)-2,8-diaza-spiro[4.5]decan-1-one], the 50% inhibitory concentration (IC50) turned out to be 30 nM. The same measure for `Cc1nc2ccc(N3CCC4(CCN(S(=O)(=O)c5ccccc5Cl)CC4)C3=O)cc2s1` [Example 127, 8-(2-Chloro-benzenesulfonyl)-2-(2-methyl-benzothiazol-6-yl)-2,8-diaza-spiro[4.5]decan-1-one]: 60 nM; for `O=C1N(c2ccc(OC3CCCC3)cc2)CCC12CCN(S(=O)(=O)c1ccccc1Cl)CC2` [Example 128, 8-(2-Chloro-benzenesulfonyl)-2-(4-cyclopentyloxy-phenyl)-2,8-diaza-spiro[4.5]decan-1-one]: 20 nM; for `O=C1N(c2ccc(OC3CCOC3)cc2)CCC12CCN(S(=O)(=O)c1ccccc1Cl)CC2` (stereo not shown) [Example 129, 8-(2-Chloro-benzenesulfonyl)-2-[4-(tetrahydro-furan-3-yloxy)-phenyl]-2,8-diaza-spiro[4.5]decan-1-one]: 40 nM. With `Cn1ncc2cc(N3CCC4(CCN(S(=O)(=O)c5ccccc5Cl)CC4)C3=O)ccc21` [Example 130, 8-(2-Chloro-benzenesulfonyl)-2-(1-methyl-1H-indazol-5-yl)-2,8-diaza-spiro[4.5]decan-1-one], the IC50 came out at 50 nM. On to `Cn1cc2cc(N3CCC4(CCN(S(=O)(=O)c5ccccc5Cl)CC4)C3=O)ccc2n1` [Example 131, 8-(2-Chloro-benzenesulfonyl)-2-(2-methyl-2H-indazol-5-yl)-2,8-diaza-spiro[4.5]decan-1-one], for which the IC50 is 570 nM. The figure for `O=C1N(c2ccc(Oc3cccnc3)cc2)CCC12CCN(S(=O)(=O)c1ccccc1Cl)CC2` [Example 132, 8-(2-Chloro-benzenesulfonyl)-2-[4-(pyridin-3-yloxy)-phenyl]-2,8-diaza-spiro[4.5]decan-1-one] is 280 nM. The figure for `O=C1N(c2ccc(OCC3CCCC3)cc2)CCC12CCN(S(=O)(=O)c1ccccc1Cl)CC2` [Example 133, 8-(2-Chloro-benzenesulfonyl)-2-(4-cyclopentylmethoxy-phenyl)-2,8-diaza-spiro[4.5]decan-1-one] is 600 nM. The same measure for `CCOC(=O)Cc1ccc(N2CCC3(CCN(S(=O)(=O)c4ccccc4Cl)CC3)C2=O)cc1` [Example 134, {4-[8-(2-Chloro-benzenesulfonyl)-1-oxo-2,8-diaza-spiro[4.5]dec-2-yl]-phenyl}-acetic acid ethyl ester]: 50 nM; for `N#CCc1ccc(N2CCC3(CCN(S(=O)(=O)c4ccccc4Cl)CC3)C2=O)cc1` [Example 135, {4-[8-(2-Chloro-benzenesulfonyl)-1-oxo-2,8-diaza-spiro[4.5]dec-2-yl]-phenyl}-acetonitrile]: 90 nM; for `Cc1nc(Cc2ccc(N3CCC4(CCN(S(=O)(=O)c5ccccc5Cl)CC4)C3=O)cc2)no1` [Example 136, 8-(2-Chloro-benzenesulfonyl)-2-[4-(5-methyl-[1,2,4]oxadiazol-3-ylmethyl)-phenyl]-2,8-diaza-spiro[4.5]decan-1-one]: 80 nM. `Cc1nnc(Cc2ccc(N3CCC4(CCN(S(=O)(=O)c5ccccc5Cl)CC4)C3=O)cc2)o1` [Example 137, 8-(2-Chloro-benzenesulfonyl)-2-[4-(5-methyl-[1,3,4]oxadiazol-2-ylmethyl)-phenyl]-2,8-diaza-spiro[4.5]decan-1-one]: the IC50 is 220 nM.

Consider `O=C1N(c2ccc(Cc3nnc(C(F)(F)F)o3)cc2)CCC12CCN(S(=O)(=O)c1ccccc1Cl)CC2` [Example 138, 8-(2-Chloro-benzenesulfonyl)-2-[4-(5-trifluoromethyl-[1,3,4]oxadiazol-2-ylmethyl)-phenyl]-2,8-diaza-spiro[4.5]decan-1-one], for which the IC50 is 530 nM.

Turning to `CC(C)(C)CS(=O)(=O)N1CCC2(CCN(c3ccc(OCCC(F)(F)F)cc3)C2=O)CC1` [Example 139, 8-(Neopentylsulfonyl)-2-(4-(3,3,3-trifluoropropoxy)phenyl)-2,8-diazaspiro[4.5]decan-1-one], the IC50 worked out at 310 nM. The same measure for `CS(=O)(=O)c1ccc(N2CCC3(CCN(S(=O)(=O)c4ccccc4Cl)CC3)C2=O)cc1` [Example 140, 8-(2-Chloro-benzenesulfonyl)-2-(4-methanesulfonyl-phenyl)-2,8-diaza-spiro[4.5]decan-1-one]: 40 nM; for `O=C1N(c2ccc(CO)cc2)CCC12CCN(S(=O)(=O)c1ccccc1Cl)CC2` [Example 141, 8-(2-Chloro-benzenesulfonyl)-2-(4-hydroxymethyl-phenyl)-2,8-diaza-spiro[4.5]decan-1-one]: 360 nM. The figure for `COCc1ccc(N2CCC3(CCN(S(=O)(=O)c4ccccc4Cl)CC3)C2=O)cc1` [Example 142, 8-(2-Chloro-benzenesulfonyl)-2-(4-methoxymethyl-phenyl)-2,8-diaza-spiro[4.5]decan-1-one] is 40 nM; for `CCc1ccc(N2CCC3(CCN(S(=O)(=O)c4ccccc4N4CCCC4=O)CC3)C2=O)cc1` [Example 143, 2-(4-Ethyl-phenyl)-8-[2-(2-oxo-pyrrolidin-1-yl)-benzenesulfonyl]-2,8-diaza-spiro[4.5]decan-1-one] it is 170 nM.

Turning to `COC/C=C/c1ccc(N2CCC3(CCN(S(=O)(=O)c4ccccc4OC(F)(F)F)CC3)C2=O)cc1` [Example 144, 2-[4-((E)-3-Methoxy-propenyl)-phenyl]-8-(2-trifluoromethoxy-benzenesulfonyl)-2,8-diaza-spiro[4.5]decan-1-one], the 50% inhibitory concentration (IC50) was found to be 50 nM.
